Measurements: patent publication US6914057B1, “Inhibitor of cataract formation” (The Research Foundation of State University of New York, priority 1998, dated 2005)

Experiments:
[1] = test system: Type II ZDF/GMI diabetic rats; experiment: Development of cataracts in Type II ZDF/GMI diabetic rats treated with tetracycline analogues; type: in vivo, rat; conditions: for percentage of Type II ZDF/GMI diabetic rats that developed cataracts: FIG. 1, treated diabetic rats, oral dose of 15 mg/kg
Description: Diabetics develop posterior subcapsular cataracts, characterized by a central opacity in the nucleus and cortex. […] In the current study, CMT-8 administration to the Type II diabetic rats reduced the incidence of cataract development by […] at five months. In fact, this therapeutic effect may have been underestimated since it was an unexpected finding and, therefore, was not documented at the earlier time points. The mechanisms by which Type II (and Type I) diabetes causes the development of these cataracts is not yet understood.
Specifically, approximately 60% of untreated Type II ZDF/GMI diabetic rats developed cataracts whereas approximately 42% of Type II ZDF/GMI diabetic rats treated with CMT-8 developed cataracts.
In particular, approximately 60% of Type II ZDF/GMI diabetic rats treated with doxycycline developed cataracts and approximately 70% of Type II ZDF/GMI diabetic rats treated with CMT-3 developed cataracts.
It is believed that the lack of efficacy for doxycycline and CMT-3 was due to the serum concentration achieved. […] The peak serum concentration for doxycycline was determined to be 0.9 μg/ml and the peak serum concentration for CMT-3 was determined to be 4.6 μg/ml. The peak serum concentration, though, for CMT-8 was determined to be 15 μg/ml. Liu et al., The Lipophilicity and Pharmacokdnetics of Different Chemically-Modified Tetracyclines (CMTs) In Vivo, Current Medicinal Chemistry, submitted for publication in September 1999. Clearly, administration of higher oral doses of CMT-3 and doxycycline would be needed to achieve serum concentrations similar to CMT-8.
FIGS. 2 and 3 provide a comparison of healthy untreated rats with untreated Type II ZDF/GMI diabetic rats and Type II ZDF/GMI diabetic rats treated with doxycycline and CMT-8.

[2] = rat; oral dose of 15 mg/kg; cited from earlier work

Row | Structure (SMILES) | percentage of Type II ZDF/GMI diabetic rats that developed cataracts [1] | peak serum concentration [2] [µg/mL] | cataract development in photographs compared with non-diabetic control rats (in words) ([1]; FIGS. 2 and 3, treated Type II ZDF/GMI diabetic rats) | reduction of the incidence of cataract development ([1]; Type II diabetic rats, at five months) [%] | prevention of cataract development (in words) ([1]; ZDF/Gmi-fa Type II diabetic rats, at five months)
1 | NC(=O)C1=C(O)C[C@@H]2C[C@@H]3Cc4cccc(O)c4C(=O)C3=C(O)[C@]2(O)C1=O [CMT-3, 6-demethyl-6-deoxy-4-dedimethylaminotetracycline] | approximately 70% | 4.6 |  |  | 
2 | CC1c2cccc(O)c2C(O)=C2C(=O)C3(O)C(O)=C(C(N)=O)C(=O)CC3C(O)C21 (stereo not drawn) [CMT-8, 5-hydroxy-6-α-deoxy-4-dedimethylaminotetracycline] | approximately 42% | 15 | Cataracts do not appear to have developed | 37 | appeared to prevent the development of these cataracts
3 | C[C@H]1c2cccc(O)c2C(=O)C2=C(O)[C@]3(O)C(=O)C(C(N)=O)=C(O)[C@@H](N(C)C)[C@@H]3[C@@H](O)[C@@H]21 [doxycycline, reference compound] | approximately 60% | 0.9 |  |  | 
